Common to all, as to assay type: cell-based
In assay [1] the test system is Renal cancer cell line ACHN cell. Kind of assay: Growth inhibitory effect against cancer cell lines (3H-thymidine uptake), ACHN. The settings on record: Homo sapiens, ACHN. Summed up:
(§1)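 Cells seeded at 1.0×10^4/well, grown 24 hrs, then exposed to compound in DMSO for 18 hrs before 6 hrs pulse with ^3H-thymidine (0.25 μCi/well). Harvested cell-incorporated radioactivity counted; IC50 is the concentration halving uptake versus DMSO control, triplicate.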

The test system of another assay is p15 protein. Kind of assay: Evaluation of p15 induction activity (Western blotting). The settings on record: test substance 0.1 μM, 24 hrs, ACHN cells or HT-29 cells, compared to DMSO, n=2. Summed up:
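p15 protein quantified by densitometry of anti-p15 Western blots (10 μg protein per lane, mean of n=2). Samples came from HT-29 or ACHN cells given 0.1 μM compound for 24 h after 24 h plating, with DMSO as control.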

The test system of another assay is p27 protein. Kind of assay: p27 protein induction test (Western blotting). The note with it: test substance (0.1 1M), 24 hrs, ACHN cells or HT-29 cells, compared to DMSO, n=2. The procedure, abridged: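 ACHN or HT-29 cells grown 24 h, then treated with test substance at […] (DMSO) for 24 h. Lysates normalised by protein content and probed by Western blot with anti-p27 antibody. Band density quantified by densitometer against DMSO control, n=2 averaged.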

The test system of assay [2] is colorectal cancer cell line HT-29 cells. Kind of assay: Growth inhibitory effect against cancer cell lines (3H-thymidine uptake), HT-29. The note with it: Homo sapiens, HT-29, inhibition of 3H-thymidine uptake; test substance 18 hrs, then 3H-thymidine 6 hrs; triplicate. The procedure, abridged:
as §1

As to `Cc1c(=O)n(C)c(Nc2ccc(I)cc2F)c2c(=O)n(C3CC3)c(=O)n(-c3cccc(NS(C)(=O)=O)c3)c12` [Example 3-7, N-{3-[3-cyclopropyl-5-(2-fluoro-4-iodophenylamino)-6,8-dimethyl-2,4,7-trioxo-3,4,6,7-tetrahydro-2H-pyrido[4,3-d]pyrimidin-1-yl]phenyl}methanesulfonamide], the IC50 in assay [1] and in assay [2] was under 0.01 µM in each case. For the same compound, the fold induction at 0.1 µM in the assay with p15 protein and in the assay on p27 protein was at least 1.5 in each case.

`CCS(=O)(=O)Nc1cccc(-n2c(=O)n(C3CC3)c(=O)c3c(Nc4ccc(I)cc4F)n(C)c(=O)c(C)c32)c1` [Example 4-2]: the IC50 in assay [1] and in assay [2] was under 0.01 µM in each case. The fold induction at 0.1 µM in the assay with p15 protein and in the assay on p27 protein was at least 1.5 each time.

For the compound `C#Cc1ccc(Nc2c3c(=O)n(C4CC4)c(=O)n(-c4cccc(NS(=O)(=O)CC)c4)c3c(C)c(=O)n2C)c(F)c1` [Example 4-6], the IC50 in assay [1] is 0.01 to 0.1 µM; in assay [2], under 0.01 µM. Moreover, the fold induction at 0.1 µM in the assay on p15 protein and with p27 protein was at least 1.5 throughout.

In the case of `CCc1ccc(Nc2c3c(=O)n(C4CC4)c(=O)n(-c4cccc(NC(C)=O)c4)c3c(C)c(=O)n2C)c(F)c1` [Example 4-9], the IC50 in assay [1] was 0.01 to 0.1 µM; in assay [2], under 0.01 µM. Moreover, the fold induction at 0.1 µM in the assay with p15 protein and in the assay with p27 protein was at least 1.5 throughout.

Turning to `CCS(=O)(=O)c1cccc(-n2c(=O)n(C3CC3)c(=O)c3c(Nc4ccc(Br)cc4F)n(C)c(=O)c(C)c32)c1` [Example 4-10], the figures for the 50% inhibitory concentration (IC50) in assay [1] and in assay [2] were 0.1 to 1 µM and 0.01 to 0.1 µM, respectively. In addition, the fold induction at 0.1 µM in the assay with p15 protein and in the assay on p27 protein was at least 1.5 in each case.

With `C=Cc1ccc(Nc2c3c(=O)n(C4CC4)c(=O)n(-c4cccc(NC(C)=O)c4)c3c(C)c(=O)n2C)c(F)c1` [Example 4-11], the IC50 in assay [1] is 0.01 to 0.1 µM; in assay [2], under 0.01 µM. Also, the fold induction at 0.1 µM with p15 protein and in the assay with p27 protein was at least 1.5 each time.

As for `CCCCC(=O)NCCC(=O)Nc1cccc(-n2c(=O)n(C3CC3)c(=O)c3c(Nc4ccc(I)cc4F)n(C)c(=O)c(C)c32)c1` [Example 4-12], the IC50 in assay [1] is 0.01 to 0.1 µM; in assay [2], under 0.01 µM. Moreover, the fold induction at 0.1 µM with p15 protein and with p27 protein was at least 1.5 throughout.

As to `CCn1c(=O)c2c(Nc3ccc(I)cc3F)n(C)c(=O)c(C)c2n(-c2cccc(NC(C)=O)c2)c1=O` [Example 4-21], the IC50 in assay [1] was 0.01 to 0.1 µM; in assay [2] it was under 0.01 µM. Besides, the fold induction at 0.1 µM with p15 protein and with p27 protein was at least 1.5 each time.

Take `C#Cc1ccc(Nc2c3c(=O)n(CC)c(=O)n(-c4cccc(NC(C)=O)c4)c3c(C)c(=O)n2C)c(F)c1` [Example 4-43]: the IC50 was 0.1 to 1 µM in assay [1] and 0.01 to 0.1 µM in assay [2]. Also, the fold induction at 0.1 µM with p15 protein and in the assay with p27 protein was at least 1.5 throughout.

Consider `CCc1ccc(Nc2c3c(=O)n(CC)c(=O)n(-c4cccc(NC(C)=O)c4)c3c(C)c(=O)n2C)c(F)c1` [Example 4-45], for which the IC50 in assay [1] is 0.1 to 1 µM; in assay [2], 0.01 to 0.1 µM. Besides, the fold induction at 0.1 µM in the assay with p15 protein and in the assay on p27 protein was at least 1.5 throughout.

In the case of `C#Cc1ccc(Nc2c3c(=O)n(C)c(=O)n(-c4cccc(NC(C)=O)c4)c3c(C)c(=O)n2C)c(F)c1` [Example 4-48], the IC50 in assay [1] was 0.01 to 0.1 µM; in assay [2], under 0.01 µM. For the same compound, the fold induction at 0.1 µM in the assay on p15 protein and with p27 protein was at least 1.5 each time.

Turning to `CCc1ccc(Nc2c3c(=O)n(C)c(=O)n(-c4cccc(NC(C)=O)c4)c3c(C)c(=O)n2C)c(F)c1` [Example 4-50], the IC50 in assay [1] is 0.1 to 1 µM; in assay [2] it was 0.01 to 0.1 µM. Moreover, the fold induction at 0.1 µM in the assay with p15 protein and in the assay on p27 protein was at least 1.5 throughout.

With `CCc1ccc(Nc2c3c(=O)n(C)c(=O)n(-c4cccc(NS(C)(=O)=O)c4)c3c(C)c(=O)n2C)c(F)c1` [Example 4-51], the IC50 in assay [1] was 0.01 to 0.1 µM; in assay [2] it was under 0.01 µM. For the same compound, the fold induction at 0.1 µM in the assay on p15 protein and with p27 protein was at least 1.5 each time.

As for `CCCc1ccc(Nc2c3c(=O)n(C4CC4)c(=O)n(-c4cccc(NC(C)=O)c4)c3c(C)c(=O)n2C)c(F)c1` [Example 4-53], the IC50 in assay [1] was in the range of 0.1 to 1 µM; in assay [2] it was 0.01 to 0.1 µM. Also, the fold induction at 0.1 µM with p15 protein and in the assay on p27 protein was at least 1.5 throughout.

For the compound `Cc1c(=O)n(C)c(Nc2ccc(I)cc2F)c2c(=O)n(C3CC3)c(=O)n(-c3cccc(S(C)(=O)=O)c3)c12` [Example 4-55], the IC50 in assay [1] was 0.01 to 0.1 µM; in assay [2], under 0.01 µM. For the same compound, the fold induction at 0.1 µM in the assay on p15 protein and in the assay with p27 protein was at least 1.5 throughout.

With `CC(=O)Nc1cccc(-n2c(=O)n(C3CC3)c(=O)c3c(Nc4ccc(C)cc4F)n(C)c(=O)c(C)c32)c1` [Example 4-56], the IC50 was in the range of 0.1 to 1 µM in assay [1] and 0.01 to 0.1 µM in assay [2]. Besides, the fold induction at 0.1 µM in the assay with p15 protein and with p27 protein was at least 1.5 each time.

For the compound `CCS(=O)(=O)c1cccc(-n2c(=O)n(C3CC3)c(=O)c3c(Nc4ccc(I)cc4F)n(C)c(=O)c(C)c32)c1` [Example 4-58], the IC50 in assay [1] is 0.01 to 0.1 µM; in assay [2], under 0.01 µM. The fold induction at 0.1 µM in the assay with p15 protein and with p27 protein was at least 1.5 in each case.

With `Cc1c(=O)n(C)c(Nc2ccc(I)cc2F)c2c(=O)n(C3CC3)c(=O)n(-c3cccc(NS(=O)(=O)N4CCCCC4)c3)c12` [Example 4-59], the IC50 in assay [1] is 0.01 to 0.1 µM; in assay [2], under 0.01 µM. Besides, the fold induction at 0.1 µM in the assay on p15 protein and in the assay with p27 protein was at least 1.5 each time.

Turning to `CCC(=O)Nc1cccc(-n2c(=O)n(C3CC3)c(=O)c3c(Nc4ccc(I)cc4F)n(C)c(=O)c(C)c32)c1` [Example 4-60], the IC50 in assay [1] is 0.01 to 0.1 µM; in assay [2], under 0.01 µM. Besides, the fold induction at 0.1 µM in the assay on p15 protein and with p27 protein was at least 1.5 in each case.

As for `CC(=O)Nc1cccc(-n2c(=O)n(C3CC3)c(=O)c3c(Nc4ccc(N(C)C)cc4F)n(C)c(=O)c(C)c32)c1` [Example 4-61], the IC50 in assay [1] and in assay [2] was 0.01 to 0.1 µM in each case. Further, the fold induction at 0.1 µM with p15 protein and in the assay with p27 protein was at least 1.5 each time.

As to `Cc1c(=O)n(C)c(Nc2ccc(I)cc2F)c2c(=O)n(C3CC3)c(=O)n(-c3cc(Cl)cc(NS(C)(=O)=O)c3)c12` [Example 4-64], the IC50 in assay [1] fell in the range of 0.1 to 1 µM; in assay [2], 0.01 to 0.1 µM. The fold induction at 0.1 µM with p15 protein and with p27 protein was at least 1.5 throughout.

As for `CC(=O)Nc1ccc(-n2c(=O)n(C3CC3)c(=O)c3c(Nc4ccc(I)cc4F)n(C)c(=O)c(C)c32)cc1` [Example 4-66], the IC50 in assay [1] was in the range of 0.1 to 1 µM; in assay [2] it was 0.01 to 0.1 µM. Moreover, the fold induction at 0.1 µM in the assay with p15 protein and in the assay with p27 protein was at least 1.5 in each case.

Regarding `CC(=O)Nc1cccc(-n2c(=O)n(C3CC3)c(=O)c3c(Nc4ccc(C5CC5)cc4F)n(C)c(=O)c(C)c32)c1` [Example 4-67], the IC50 in assay [1] was 0.01 to 0.1 µM; in assay [2], under 0.01 µM. The fold induction at 0.1 µM with p15 protein and in the assay on p27 protein was at least 1.5 throughout.

As for `C#Cc1ccc(Nc2c3c(=O)n(C4CC4)c(=O)n(-c4ccc(NC(C)=O)cc4)c3c(C)c(=O)n2C)c(F)c1` [Example 4-71], the IC50 in assay [1] was 0.1 to 1 µM; in assay [2], 0.01 to 0.1 µM. The fold induction at 0.1 µM in the assay on p15 protein and in the assay with p27 protein was at least 1.5 throughout.

Turning to `Cc1c(=O)n(C)c(Nc2ccc(I)cc2F)c2c(=O)n(C3CC3)c(=O)n(-c3ccccc3)c12` [Example 4-72], the IC50 is 0.01 to 0.1 µM in assay [1] and under 0.01 µM in assay [2]. The fold induction at 0.1 µM in the assay on p15 protein and in the assay with p27 protein was at least 1.5 throughout.

With `Cc1c(=O)n(C)c(Nc2ccc(I)cc2F)c2c(=O)n(C3CC3)c(=O)n(-c3cccc(NC(=O)c4c[nH]cn4)c3)c12` [Example 4-73], the IC50 is 0.01 to 0.1 µM in assay [1] and under 0.01 µM in assay [2]. Further, the fold induction at 0.1 µM in the assay with p15 protein and in the assay with p27 protein was at least 1.5 in each case.

As to `CONC(=O)Nc1cccc(-n2c(=O)n(C3CC3)c(=O)c3c(Nc4ccc(I)cc4F)n(C)c(=O)c(C)c32)c1` [Example 4-74], the IC50 in assay [1] was 0.01 to 0.1 µM; in assay [2], under 0.01 µM. The fold induction at 0.1 µM in the assay on p15 protein and in the assay on p27 protein was at least 1.5 each time.

As for `C#Cc1ccc(Nc2c3c(=O)n(C4CC4)c(=O)n(-c4ccc(NS(C)(=O)=O)cc4)c3c(C)c(=O)n2C)c(F)c1` [Example 4-76], the values for the 50% inhibitory concentration (IC50) in assay [1] and in assay [2] were 0.01 to 0.1 µM and under 0.01 µM, respectively. For the same compound, the fold induction at 0.1 µM in the assay with p15 protein and in the assay with p27 protein was at least 1.5 each time.

With `CCS(=O)(=O)Nc1ccc(-n2c(=O)n(C3CC3)c(=O)c3c(Nc4ccc(I)cc4F)n(C)c(=O)c(C)c32)cc1` [Example 4-77], the 50% inhibitory concentration (IC50) in assay [1] is 0.01 to 0.1 µM; in assay [2], under 0.01 µM. Further, the fold induction at 0.1 µM with p15 protein and in the assay on p27 protein was at least 1.5 each time.

Take `CCc1ccc(Nc2c3c(=O)n(C4CC4)c(=O)n(-c4ccc(NS(C)(=O)=O)cc4)c3c(C)c(=O)n2C)c(F)c1` [Example 4-78]: the results for the IC50 in assay [1] and in assay [2] were 0.1 to 1 µM and 0.01 to 0.1 µM, respectively. The fold induction at 0.1 µM in the assay on p15 protein and in the assay on p27 protein was at least 1.5 in each case.

The values are drawn from patent US20180273531A1, “PYRIMIDINE COMPOUND AND MEDICAL USE THEREOF” (Japan Tobacco Inc., priority 2004, published 2018).
